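Protocol summary: plate cells (96-well), add compound at 5 concentrations, incubate 48 h, interpolate endpoints linearly. GI50: concentration for 50% inhibition of growth. TGI: total growth inhibition.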 Bounds are passed on as bounds.

In one assay the test system is HOP-92 NSCLC. The assay is described as follows: NCI-60 cell line screen, 48 h.
In the case of `O=C1c2cc3c(cc2-c2c1c1ccc(F)cc1c(=O)n2CCCNCCO)OCO3`, the GI50 was 0.198 µM and the TGI was 0.845 µM.
Take `CCOC(=O)C(=C=C=C(c1ccccc1)c1ccccc1)C(=O)OCC`: the TGI turned out to be 31.3 µM.
`Cn1c2ccccc2c2cc(-c3ccccc3)c3c(c21)C(=O)c1ccccc1C3=O`: the TGI was 26.3 µM.
Compound `c1ccc(COc2cccc3ccc[n+](Cc4ccccc4)c23)cc1` came in with a TGI of 34.2 µM.
Still for that read-out and setting: the same measure for `CN(C)c1ccc(/C=C(\NC(=O)c2ccccc2)c2nc3ncncc3[nH]2)cc1`: > 100 µM; for `CC1=CC(O)(c2ccc(-c3ccccc3Cl)cc2)OC1=O` (centres undefined): > 100 µM.
Turning to `O=C(/C=C/c1ccncc1)c1cc(Cl)ccc1O`, the GI50 is 4.65 µM and the TGI is 19.6 µM.
For `COc1cc2c3c(n(C)c(=O)c2cc1OC)-c1cc2c(cc1/C3=C\CCCN)OCO2`, the GI50 was 0.696 µM and the TGI was 7.22 µM.
As to `COC(OC)C(C)CC(=O)N(C)C` (centres undefined), the TGI is > 100 µM.
For `O=S1(=O)OCCOS(=O)(=O)C1Br`, the TGI was > 100 µM.
Regarding `CC(C)=Cc1cc(C(=O)Nc2ccc(Cl)c(Cl)c2)nc(N)n1`, the TGI is > 100 µM.
Still for that read-out and setting: the result for `CCOC(=O)c1cc2nc3ccccc3c(=O)n2c2ccccc12` reads > 10 µM; that for `CC(=O)/C(=C\c1cccc([N+](=O)[O-])c1)C(=O)Nc1ccccc1C`, > 100 µM; that for `C[Si](C)(C)C1(Sc2ccccc2)SCCCS1`, > 100 µM.
Regarding `COc1cc2c3c(n(C)c(=O)c2cc1OC)-c1cc2c(cc1/C3=C\CCN)OCO2`, the GI50 is 1.32 µM and the TGI came out at 26.5 µM.

A further assay concerns OVCAR-4 ovarian. As to the kind of experiment: NCI-60 cell line screen, 48 h.
Take `CCOC(=O)NC(=O)c1cn(CCCO)c(=O)[nH]c1=O`: the TGI is > 100 µM.
For the compound `CCN1c2ccccc2C(C(SC)S(=O)(=O)c2ccc(C)cc2)c2c1[nH]c(=O)n(C)c2=O` (centres undefined), the TGI is > 100 µM.
Still for that read-out and setting: the same measure for `COc1ccc(S(=O)(=O)NNS(C)(=O)=O)cc1`: > 100 µM.
In the case of `C[C@@H]1CCC2[C@@H](C)[C@@H](OCC(CO[C@H]3OC4O[C@@]5(C)CC[C@H]6[C@H](C)CCC([C@H]3C)[C@@]46OO5)OC(=O)CCC(=O)O)OC3O[C@@]4(C)CC[C@@H]1[C@]32OO4` (some centres undefined), the GI50 was 0.0583 µM and the TGI was determined as 26.3 µM.
Take `O=C1c2cc3c(cc2-c2c1c1ccc(F)cc1c(=O)n2CCCNCCO)OCO3`: the GI50 was 0.194 µM and the TGI was 1.33 µM.
`O=C(/C=C\c1ccc(Cl)c(Cl)c1)c1ccc(Cl)cc1Cl`: the TGI is 88.7 µM.
As to `ClCc1cccc(Cn2cnc3ncnc(Cl)c32)c1`, the GI50 is 4.17 µM and the TGI stood at 16 µM.
Compound `CCOC(=O)C(=C=C=C(c1ccccc1)c1ccccc1)C(=O)OCC` registered a TGI of 33.7 µM.
`OCC#Cc1ccccc1C#Cc1ccccc1`: the GI50 is 17 µM and the TGI was 45.2 µM.
On to `Cn1c2ccccc2c2cc(-c3ccccc3)c3c(c21)C(=O)c1ccccc1C3=O`, for which the TGI stood at 34.3 µM.
Regarding `c1ccc(COc2cccc3ccc[n+](Cc4ccccc4)c23)cc1`, the TGI turned out to be 45.7 µM.
In the case of `CN(C)c1ccc(/C=C(\NC(=O)c2ccccc2)c2nc3ncncc3[nH]2)cc1`, the TGI was > 100 µM.
On the same count and under the same terms, the same measure for `CC1=CC(O)(c2ccc(-c3ccccc3Cl)cc2)OC1=O` (centres undefined): > 100 µM.
Turning to `O=C(/C=C/c1ccncc1)c1cc(Cl)ccc1O`, the GI50 is 27.3 µM and the TGI turned out to be 88.1 µM.
For `COc1cc2c3c(n(C)c(=O)c2cc1OC)-c1cc2c(cc1/C3=C\CCCN)OCO2` the same measures were 17.9 µM and 52.7 µM.
As to `CCOC(=O)CC(=O)ON(C)C(C)=O`, the TGI was > 100 µM.
Regarding `Cc1ccc(S(=O)(=O)Nc2ccccc2C(=O)c2ccc(C)c(C)c2)cc1`, the TGI was > 100 µM.
On the same count and under the same terms, the same measure for `COC(OC)C(C)CC(=O)N(C)C` (centres undefined): > 100 µM.
Consider `O=S1(=O)OCCOS(=O)(=O)C1Br`, for which the TGI was > 100 µM.
On to `CC(C)=Cc1cc(C(=O)Nc2ccc(Cl)c(Cl)c2)nc(N)n1`, for which the TGI is > 100 µM.
In the case of `CCOC(=O)c1cc2nc3ccccc3c(=O)n2c2ccccc12`, the TGI was > 10 µM.
On to `CC(=O)/C(=C\c1cccc([N+](=O)[O-])c1)C(=O)Nc1ccccc1C`, for which the TGI is > 100 µM.
The same measure, in the same setting: the result for `C[Si](C)(C)C1(Sc2ccccc2)SCCCS1` reads > 100 µM.
As to `O=C(CSc1ccc(Cl)cc1)Nc1ccc(-c2nc3ccccc3s2)c(Cl)c1`, the GI50 is 5.95 µM and the TGI was > 100 µM.
For `COc1cc2c3c(n(C)c(=O)c2cc1OC)-c1cc2c(cc1/C3=C\CCN)OCO2` the same measures were 0.792 µM and 6.54 µM.

A further assay deals with UO-31 renal. As to the kind of experiment: NCI-60 cell line screen, 48 h.
Consider `CCOC(=O)NC(=O)c1cn(CCCO)c(=O)[nH]c1=O`, for which the TGI is > 100 µM.
Same read-out and setting: the same measure for `CCN1c2ccccc2C(C(SC)S(=O)(=O)c2ccc(C)cc2)c2c1[nH]c(=O)n(C)c2=O` (centres undefined): > 100 µM; for `COc1ccc(S(=O)(=O)NNS(C)(=O)=O)cc1`: > 100 µM.
As to `C[C@@H]1CCC2[C@@H](C)[C@@H](OCC(CO[C@H]3OC4O[C@@]5(C)CC[C@H]6[C@H](C)CCC([C@H]3C)[C@@]46OO5)OC(=O)CCC(=O)O)OC3O[C@@]4(C)CC[C@@H]1[C@]32OO4` (some centres undefined), the GI50 was 1.57 µM and the TGI was > 46 µM.
`O=C1c2cc3c(cc2-c2c1c1ccc(F)cc1c(=O)n2CCCNCCO)OCO3`: the GI50 is 0.0292 µM and the TGI turned out to be 0.148 µM.
Turning to `CC1(C)C2CCC(=O)C1CC2` (centres undefined), the TGI was > 100 µM.
For the compound `O=C(/C=C\c1ccc(Cl)c(Cl)c1)c1ccc(Cl)cc1Cl`, the GI50 was > 100 µM and the TGI is > 100 µM.
As for `ClCc1cccc(Cn2cnc3ncnc(Cl)c32)c1`, the GI50 is 1.54 µM and the TGI is 3.11 µM.
`CCOC(=O)C(=C=C=C(c1ccccc1)c1ccccc1)C(=O)OCC` returned a TGI of 34.1 µM.
For the compound `OCC#Cc1ccccc1C#Cc1ccccc1`, the GI50 was 35.2 µM and the TGI was > 100 µM.
`Cn1c2ccccc2c2cc(-c3ccccc3)c3c(c21)C(=O)c1ccccc1C3=O` returned a TGI of 35.4 µM.
Compound `c1ccc(COc2cccc3ccc[n+](Cc4ccccc4)c23)cc1` displayed a TGI of 75.2 µM.

The record behind these values is PubChem BioAssay (NCI).
